Assays:
HDAC8 [1] = molecular target: T1, HDAC8 (Homo sapiens, UniProt Q9BY41); assay: Covalent labeling, tryptic digestion and MS/MS; format: binding
T1 construct: one additional N-terminal residue 'H' (His) (N)
T1 sequence (Q9BY41 1-377): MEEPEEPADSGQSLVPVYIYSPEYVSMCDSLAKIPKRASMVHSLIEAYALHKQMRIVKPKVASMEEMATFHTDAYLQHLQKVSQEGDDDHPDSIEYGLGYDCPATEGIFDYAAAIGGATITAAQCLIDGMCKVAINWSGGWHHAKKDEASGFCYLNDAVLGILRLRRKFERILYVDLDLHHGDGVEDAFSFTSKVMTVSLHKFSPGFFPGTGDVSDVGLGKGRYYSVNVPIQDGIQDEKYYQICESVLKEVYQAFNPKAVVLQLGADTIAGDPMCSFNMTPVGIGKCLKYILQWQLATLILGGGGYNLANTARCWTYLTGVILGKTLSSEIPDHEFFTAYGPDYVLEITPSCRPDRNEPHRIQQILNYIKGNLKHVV
Method: The covalent labeling procedure was conducted as described previously with slight modifications.[31] First, 25 μM HDAC8 was treated with 250 μM covalent probes for 1 h at 30 °C in the assay buffer described above. The protein was then precipitated by the addition of 10% TCA and then centrifuged at 18000g for 15 min. The supernatant was removed, and the dry pellet was diluted in buffer [50 mM NH4HCO3 (pH 7.8)]. After the fragment labeling was completed, 50 μL of the sample and 10 μL of a 0.2% (w/v) RapiGest SF (Waters, Milford, MA) solution buffered with 50 mM ammonium bicarbonate were mixed (pH 7.8), 3.3 μL of 45 mM DTT in 100 mM NH4HCO3 was added to reduce artificial oxidized cysteine residues, and the mixture was kept at 37.5 °C for 30 min. After the sample was cooled to room temperature, reduction was quenched, and nascent thiols were alkylated by adding 4.16 μL of 100 mM iodoacetamide in 100 mM NH4HCO3. Samples were placed in the dark at room temperature for 30 min. The reduced and alkylated protein was then digested with 10 μL (1 mg/mL) of trypsin (the enzyme:protein ratio was 1:10) (Sigma, St. Louis, MO). The sample was incubated at 37 °C overnight. To degrade the surfactant, 7 μL of a formic acid (500 mM) solution was added to the digested protein sample, a final concentration of 40 mM (pH ≈2) was obtained, and the mixture was further incubated at 37 °C for 45 min. For LC-MS analysis, the acid-treated sample was centrifuged for 5 min at 13 000 rpm and the supernatant was pipetted into a microvial.
For procedure A, an AB Sciex 6500 QTRAP hybrid triple quadruple linear ion trap mass spectrometer, equipped with a Turbo V ion source in electrospray mode and an Agilent 1100 Binary Pump HPLC system (Agilent Technologies, Waldbronn, Germany) consisting of an autosampler, was used for LC-MS/MS analysis. Data acquisition and processing were performed using Analyst version 1.6.2 (AB Sciex Instruments). Chromatographic separation was achieved by using the Discovery BIO Wide Pore C-18-5 column (250 mm × 2.1 mm, 5 μm, 300 Å). The sample was eluted with a gradient of solvent A (0.1% formic acid in water) and solvent B (0.1% formic acid in ACN). The flow rate was set to 0.2 mL min^–1. The initial process for separation was as follows: 5% B for 7 min, followed by a linear gradient to 90% B by […], 90% B from 60 to 64 min, and from 64 to 65 min back to the initial condition with 5% eluent B retained for 10 min. The injection volume was 10 μL. An information-dependent acquisiton (IDA) LC-MS/MS experiment was used to identify the modified tryptic peptide fragments. An enhanced MS scan (EMS) was used as a survey scan, and an enhanced product ion scan (EPI) was the dependent scan. Precursor ion selection criteria: ions greater than m/z 400, which exceeds 106 counts, exclude former target ions for 30 s after two occurrence(s). The scan rates in both survey and dependent scans were 1000 Da/s. Nitrogen was used as the nebulizer gas (GS1), heater gas (GS2), and curtain gas with the optimum values set at 50, 40, and 40 (arbitrary units), respectively. The source temperature was 350 °C, and the ion spray voltage was set at 5000 V. The declustering potential value was set to 150 V. The collision energy in EPI experiments was set to rolling collision energy mode, where the actual value was set on the basis of the mass and charge state of the selected ion. GPMAW version 4.2 was used to analyze the large number of MS-MS spectra and identify the modified tryptically digested peptides.
For procedure B, to obtain more precise information about the structure, samples were further analyzed by a Triple TOF 5600+ hybrid Quadrupole-TOF LC/MS/MS system (Sciex) equipped with a DuoSpray IonSource coupled with a Shimadzu Prominence LC20 UFLC system consisting of a quaternary pump, an autosampler, and a thermostated column compartment. Data were acquired and processed using Analyst TF version 1.7.1 (AB Sciex Instruments). […]

HDAC4 = HDAC4 (Homo sapiens, UniProt P56524); assay: HDAC4 biochemical assay; details: preincubation 1 h, 1 nM HDAC4
Method: The enzyme activity assay was performed in assay buffer [25 mM Tris-HCl (pH 8.0), 50 mM NaCl, and 0.001% (v/v) Pluronic F-68] in black half-area 96-well microplates (Greiner Bio-One). […] The reaction was initiated by the addition of 20 μM Boc-Lys(TFA)-AMC (Bachem). […] The deacetylated substrate was cleaved with 0.42 mg/mL trypsin to release fluorescent 7-amino-4-methylcoumarin (AMC), which was detected with a microplate reader (PHERAstar FS […]) with fluorescence excitation at 360 nm and emission at 460 nm. IC50 values were calculated by generating dose–response curves in GraphPad Prism 6 and fitting those to a four-parameter logistic model.

HDAC8 [2] = molecular target: T1, HDAC8; assay: Kinetic parameters of inactivation from time-dependent IC50; format: biochemical
Method: Time-dependent IC50 values were obtained using the previously described enzyme activity assay after varying preincubation times.

SMC3 acetylation = assay: Western blot (immunoblot) in OCI-AML3 cells; format: cell-based; details: 72 h treatment
Method: Cells (2 ×10^6) were seeded in 2 mL of medium in a six-well plate (Greiner) and treated with the desired concentration of the compounds. […] Protein concentrations were determined by the Bradford protein assay. Thirty micrograms of cell lysates per treatment was fractionated on sodium dodecyl sulfate–polyacrylamide gels and transferred to nitrocellulose membranes (Cytiva).

Chain of HDAC4 (P56524 whole entry, species assumed): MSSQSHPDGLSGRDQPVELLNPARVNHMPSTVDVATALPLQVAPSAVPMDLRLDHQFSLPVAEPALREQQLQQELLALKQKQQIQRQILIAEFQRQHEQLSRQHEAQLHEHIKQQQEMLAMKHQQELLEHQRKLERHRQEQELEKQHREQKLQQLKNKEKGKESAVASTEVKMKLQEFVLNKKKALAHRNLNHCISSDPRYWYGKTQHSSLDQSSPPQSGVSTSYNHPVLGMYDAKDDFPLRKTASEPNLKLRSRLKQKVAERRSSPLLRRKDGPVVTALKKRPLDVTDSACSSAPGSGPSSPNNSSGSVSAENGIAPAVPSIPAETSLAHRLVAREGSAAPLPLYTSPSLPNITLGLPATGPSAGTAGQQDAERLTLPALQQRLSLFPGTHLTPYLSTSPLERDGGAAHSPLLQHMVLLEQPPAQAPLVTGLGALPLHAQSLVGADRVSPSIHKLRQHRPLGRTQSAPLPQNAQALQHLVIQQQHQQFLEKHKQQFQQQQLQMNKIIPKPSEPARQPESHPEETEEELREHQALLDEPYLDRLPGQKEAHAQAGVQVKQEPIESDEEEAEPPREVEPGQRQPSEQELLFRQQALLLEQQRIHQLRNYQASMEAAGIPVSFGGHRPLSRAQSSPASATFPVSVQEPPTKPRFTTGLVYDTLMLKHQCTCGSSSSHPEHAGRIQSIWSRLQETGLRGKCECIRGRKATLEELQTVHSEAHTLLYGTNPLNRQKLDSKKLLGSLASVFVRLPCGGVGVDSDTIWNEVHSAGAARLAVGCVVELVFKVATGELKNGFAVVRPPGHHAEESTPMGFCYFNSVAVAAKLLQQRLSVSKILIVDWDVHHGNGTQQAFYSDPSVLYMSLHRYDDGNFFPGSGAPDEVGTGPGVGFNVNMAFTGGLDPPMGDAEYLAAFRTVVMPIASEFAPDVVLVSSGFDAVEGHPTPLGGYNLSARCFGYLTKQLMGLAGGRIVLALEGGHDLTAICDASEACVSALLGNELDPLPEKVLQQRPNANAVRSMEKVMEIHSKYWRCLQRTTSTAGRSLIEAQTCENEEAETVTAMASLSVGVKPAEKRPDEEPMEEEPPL

`C[n+]1ccccc1I` [A3+] was tested, and the “MS/MS: modified HDAC8 peptide [148-165]” value (HDAC8 [1]; 25 μM HDAC8, 250 μM probe, 1 h) was “modified” and the “MS/MS: modified HDAC8 peptide [241-250]” value (HDAC8 [1]; 25 μM HDAC8, 250 μM probe, 1 h) was “modified”.

For `C[n+]1ccc(I)cc1` [C3+], the “MS/MS: modified HDAC8 peptide [33-83]” value (HDAC8 [1]; 25 μM HDAC8, 250 μM probe, 1 h) was “modified”, the “MS/MS: modified HDAC8 peptide [148-165]” value (HDAC8 [1]; 25 μM HDAC8, 250 μM probe, 1 h) was “modified” and the “MS/MS: modified HDAC8 peptide [241-250]” value (HDAC8 [1]; 25 μM HDAC8, 250 μM probe, 1 h) was “modified”. For the same compound, the “MS/MS: modified HDAC8 peptide [260-287]” value (HDAC8 [1]; 25 μM HDAC8, 250 μM probe, 1 h) was “modified”.

`C#Cc1cc[n+](C)cc1` [C6+] was tested, and the “MS/MS: modified HDAC8 peptide [1-34]” value (HDAC8 [1]; 25 μM HDAC8, 250 μM probe, 1 h) was “modified”, the “MS/MS: modified HDAC8 peptide [148-165]” value (HDAC8 [1]; 25 μM HDAC8, 250 μM probe, 1 h) was “modified” and the “MS/MS: modified HDAC8 peptide [241-250]” value (HDAC8 [1]; 25 μM HDAC8, 250 μM probe, 1 h) was “modified”.

For `C[n+]1cccnc1Cl` [D1+], the “MS/MS: modified HDAC8 peptide [1-34]” value (HDAC8 [1]; 25 μM HDAC8, 250 μM probe, 1 h) was “modified”, the “MS/MS: modified HDAC8 peptide [148-165]” value (HDAC8 [1]; 25 μM HDAC8, 250 μM probe, 1 h) was “modified” and the “MS/MS: modified HDAC8 peptide [241-250]” value (HDAC8 [1]; 25 μM HDAC8, 250 μM probe, 1 h) was “modified”.

For `C[n+]1cccnc1Br` [D2+], the “MS/MS: modified HDAC8 peptide [148-165]” value (HDAC8 [1]; 25 μM HDAC8, 250 μM probe, 1 h) was “modified” and the “MS/MS: modified HDAC8 peptide [241-250]” value (HDAC8 [1]; 25 μM HDAC8, 250 μM probe, 1 h) was “modified”.

With `C[n+]1cccnc1I` [D3+] the “MS/MS: modified HDAC8 peptide [1-34]” value (HDAC8 [1]; 25 μM HDAC8, 250 μM probe, 1 h) was “modified”, the “MS/MS: modified HDAC8 peptide [148-165]” value (HDAC8 [1]; 25 μM HDAC8, 250 μM probe, 1 h) was “modified” and the “MS/MS: modified HDAC8 peptide [241-250]” value (HDAC8 [1]; 25 μM HDAC8, 250 μM probe, 1 h) was “modified”. For the same compound, the “MS/MS: modified HDAC8 peptide [260-287]” value (HDAC8 [1]; 25 μM HDAC8, 250 μM probe, 1 h) was “modified”.

With `C#Cc1nccc[n+]1C` [D6+] the “MS/MS: modified HDAC8 peptide [1-34]” value (HDAC8 [1]; 25 μM HDAC8, 250 μM probe, 1 h) was “modified”.

With `C[n+]1cncc(Br)c1` [F2+] the “MS/MS: modified HDAC8 peptide [1-34]” value (HDAC8 [1]; 25 μM HDAC8, 250 μM probe, 1 h) was “modified”, the “MS/MS: modified HDAC8 peptide [148-165]” value (HDAC8 [1]; 25 μM HDAC8, 250 μM probe, 1 h) was “modified” and the “MS/MS: modified HDAC8 peptide [260-287]” value (HDAC8 [1]; 25 μM HDAC8, 250 μM probe, 1 h) was “modified”.

For `C[n+]1cncc(I)c1` [F3+], the “MS/MS: modified HDAC8 peptide [1-34]” value (HDAC8 [1]; 25 μM HDAC8, 250 μM probe, 1 h) was “modified”, the “MS/MS: modified HDAC8 peptide [148-165]” value (HDAC8 [1]; 25 μM HDAC8, 250 μM probe, 1 h) was “modified” and the “MS/MS: modified HDAC8 peptide [260-287]” value (HDAC8 [1]; 25 μM HDAC8, 250 μM probe, 1 h) was “modified”. The “MS/MS: modified HDAC8 peptide [327-357]” value (HDAC8 [1]; 25 μM HDAC8, 250 μM probe, 1 h) was “modified”.

For `C#Cc1c[n+](C)ccn1` [G6+], the “MS/MS: modified HDAC8 peptide [1-34]” value (HDAC8 [1]; 25 μM HDAC8, 250 μM probe, 1 h) was “modified”, the “MS/MS: modified HDAC8 peptide [148-165]” value (HDAC8 [1]; 25 μM HDAC8, 250 μM probe, 1 h) was “modified” and the “MS/MS: modified HDAC8 peptide [260-287]” value (HDAC8 [1]; 25 μM HDAC8, 250 μM probe, 1 h) was “modified”.

`C#Cc1c[n+](C)ccc1NC(=O)CC(=O)N1Cc2ccccc2C1.[I-]` [compound 3, 3-Ethynyl-4-[3-(isoindolin-2-yl)-3-oxopropanamido]-1-methylpyridin-1-ium Iodide] showed an IC50 (HDAC4) of 23.1 µM, a kinact/KI (HDAC8 [2]; HDAC8) of 1570 M⁻¹ s⁻¹ and a Ki (HDAC8 [2]; HDAC8, inactivation constant) of 3.2 µM. For the same compound, the kinact (HDAC8 [2]; HDAC8, time-dependent IC50, Krippendorff approach) was 0.0051 s⁻¹, the “covalent labeling of HDAC8 cysteine by tryptic digestion and MS/MS” value (HDAC8 [1]) was “proved Cys153 covalent labeling” and the “concentration inducing an increased level of SMC3 acetylation” value (SMC3 acetylation) was 10 µM. The “effect on HDAC8 levels” value (SMC3 acetylation) was “not influencing HDAC8 levels”.

Source: paper PMC10788917 (Journal of Medicinal Chemistry, 2023)
